Legend:
[1] = biological target: T1, terminal deoxynucleotidyl transferase (TdT) (Bos taurus, UniProt P06526); experiment: TdT enzyme assay (3H-dGTP incorporation); type: biochemical, calf
T1 construct: purchased DuPont/NEN Products, Boston, Massachusetts; host or cells: calf thymus
Procedure: (§1) Initially, the effect of various ddNTPs on TdT and DNA polymerase alpha was evaluated. DNA polymerase alpha, purified from calf thymus according to Kornberg [DNA Replication, W.H. Freeman and Company, 1980, p 206]and Wahl et al. [Biochemistry 23:1895 (1984)] was purchased from Pharmacia, Inc. (Piscataway, N.J.). TdT, purified from calf thymus, was purchased from DuPont/NEN Products, Boston, Massachusetts). Enzyme assays were conducted at 37 C. under conditions established to be optimal for each assay. For DNA polymeraseα, 0.1 ml of reaction mixture contained: 0.05 M tris-HCl (pH 8.3); 4 mM dithiothreitol; 4 mM MgCl; 10 ug poly(dAT); 0.05 mM ^3 H-dATP; 0.05 mM dTTP; and 0.05 units of enzyme. For TdT assays, 0.1 ml of standard reaction mixture contained: 0.05 M tris-HCl (pH 8.3); 2 mM dithiothreitol; 0.6 mM MnCl; 20 ug oligo(dA) 50; 0.1 mM ^3 H-dGTP; and 0.5 units of TdT.
For these studies, ddNTPs were dissolved in deionized distilled water and added to the respective reaction mixtures at time zero to give the effective final concentrations. The degree of reaction or inhibition was calculated from simultaneous control reactions. The mode of inhibition and inhibition constants were determined using Linweaver-Burke and Dixon plots. Each of the respective reactions was stopped using 0.5 ml of cold (4 C) 0.1 M sodium pyrophosphate containing 1 mg/ml yeast RNA (hereinafter"NaPP") and precipitated with 0.5 ml of cold 25% trichloroacetic acid (hereinafter "TCA"). The precipitates centrifuged at 13,000×gravity in a microfuge for one minute; resolubilized in 0.2 ml of 0.3M NaOH; and then reprecipitated with NaPP and TCA. Following a second 0.3 M NaOH resolubilization, 10 ml of scintiverse II (Fisher Scientific Company, Fairlawn, N.J.) was added to each sample for counting in a Beckman LS3700 liquid scintillation counter.
(§2) It should be noted also that for certain TdT assays, a variety of different initiators were used in place of oligo (dA) 50. These included: activated DNA; 5'-^32 T-GTCCGTCTCTGCCTC-3' (15 MER synthesized on an automated synthesizer using standard phosphoramidite chemistry having a ^32 P-end labeled by a standard Maxam-Gilbert reaction); YEP-FG-2-plasmid DNA; oligo (dC) 18; oligo (dT) 18; and various ^3 H-substrates such as dCTP, dATP, and dTTP in place of ^3 H-dGTP. Reactions utilizing the 15 MER initiator contained either 5 mM MgCl2 or 1 mM CoCl2 in place of MnCl2.

TdT-negative cell lines = experiment: Growth inhibition, summary over TdT-negative cell lines; type: cell-based; details: 48 hour
Procedure: (§3) Each cell line was utilized in exponential growth phase. For test purposes, cells were seeded at […] cells/ml in T25 flasks containing 4 ml of culture medium. Cell counts were made using a hemocytometer. Cell viability was determined using the tryptan blue dye exclusion method. The degree of growth inhibition was calculated by comparison with untreated controls.
(§4) Initially, the effect of a 48 hour continuous exposure to 250 uM and 500 uM of ddA upon four TdT-positive and three TdT-negative cell lines was evaluated.
(§5) The growth inhibition data of Table V is defined as the ratio of viable cells in the ddA exposed cultures in comparison to control cultures. Each determination reflects the mean of triplicate flasks. It is noted that at 250 uM of ddA, there was marked growth inhibition (30-80%) in all four TdT-positive cell lines whereas there was very little effect among the TdT-negative cells (0-15% growth inhibition). At 500 uM of ddA, the cytotoxicity in the TdT-positive lines was further increased (92-99% growth inhibition). At this concentration level, 2 of the 3 TdT-negative lines also show measureable growth inhibition (40-50%).

TdT-positive cell lines = experiment: Growth inhibition, summary over TdT-positive cell lines; type: cell-based; details: 48 hour
Procedure: as §3, §4, §5
(§6) As a result, another series of experiments was conducted in which the non-selective purinogenic cytotoxicity was reduced. […]

L1210 = experiment: Growth inhibition, viable cell count by trypan blue exclusion; type: cell-based; details: Mus musculus; L1210, TdT negative, 48 hour continuous exposure
Procedure: as §3, §4, §5

298-26 = experiment: as above; type: cell-based, Murine; details: Mus musculus; 298-26, TdT positive, 48 hour continuous exposure
Procedure: as §3, §4, §5, §6

MOLT-4 = experiment: as above; type: cell-based; details: Homo sapiens; MOLT-4, TdT positive, 48 hour continuous exposure
Procedure: as §3, §4, §5
(§7) As a result, another series of experiments was conducted in which the non-selective purinogenic cytotoxicity was reduced. In this experimental series, a variety of different cell lines were pre-incubated for 30 minutes with the adenosine deaminase inhibitor, coformycin (CF). This CF exposure was then followed by a continuous 48 hour exposure to 250 uM ddA with suitable controls. Growth inhibition was defined as the ratio of viable cells in the CF/ddA exposed cell cultures in comparison to control cultures. Each determination reflects the mean of quadruplicate flasks. The results are provided by FIG. 3 and Table VI respectively.

NALM-6 = experiment: as above; type: cell-based; details: Homo sapiens; NALM-6, TdT positive, 48 hour continuous exposure
Procedure: as §3, §4, §5, §7

HPB-ALL = experiment: as above; type: cell-based; details: Homo sapiens, HPBALL, TdT positive, 48 hour continuous exposure
Procedure: as §3, §4, §5, §7

ML3 = experiment: as above; type: cell-based; details: Homo sapiens; ML3, TdT negative, 48 hour continuous exposure
Procedure: as §3, §4, §5, §7

8392 = experiment: as above; type: cell-based; details: Homo sapiens; 8392, TdT negative, 48 hour continuous exposure
Procedure: as §3, §4, §5, §7

[2] = system: fresh leukemia cell cultures; experiment: Ex-vivo viability of fresh leukemia cells from patients (trypan blue); type: cell-based, human; details: 30 uM CF alone, two instances
From the text: Leukemic blast cells from bone marrow or peripheral blood were obtained from 12 patients; of these, six persons were diagnosed as afflicted with acute lymphatic leukemia; three persons were diagnosed as afflicted with acute myeloblastic leukemia; two persons were diagnosed as afflicted with blastic chronic myelogenous leukemia; and one person was diagnosed as having acute myelogenous leukemia, complicating multiple myeloma. These diagnoses were based upon standard clinical and laboratory criteria. In ten of these twelve patients, blast cells constituted more than 75% of the mononuclear cells. In the eleventh and twelfth patients, 32% and 42% of the mononuclear cells were blast cells.
The leukemic cells from each person were enriched on Ficoll-Hypaque medium; washed in phosphate-buffered saline without divalent cations; resuspended in RPMI-1640 medium containing 20% FCS; and then grown in RPMI-1640 media supplemented with 10% FCS. The TdT status of each cell sample was independently determined by conventional biochemical assay before culturing. […] The six TdT-positive cases all had acute lymphoblastic leukemia.
Experimentally, all twelve fresh leukemia cell cultures were continuously exposed ex-vivo to 250 uM of ddA and 30 uM of CF for 72 hours. Each was then individually evaluated for viability as determined by trytan blue staining. The empirical results are illustrated by FIG. 6. […]

[3] = biological target: T1, terminal deoxynucleotidyl transferase (TdT); experiment: TdT-catalyzed polymerization on 32P-labelled 15 MER initiator, autoradiograph (chain termination); type: biochemical, calf; details: ddATP as substrate, MgCl2 or CoCl2
From the text: as §2
It should be noted that the mechanism of inhibition by any of the ddNTPs upon TdT catalysis is by chain termination. […] A radiolabelled oligomer (^32 P-GTCCGTCTCTGCCTC-3') shown in Lane 1 was used as an initiator for TdT-catalyzed polymerization using: dATP (Lanes 2 and 4); or ddATP (Lanes 3 and 5 ) as substrates. Lanes 2 and 3 represent the reaction products generated in the presence of MgCl2 while Lanes 4 and 5 represent the reaction products generated in the presence of CoCl2 respectively. Each reaction product was electrophoresed on a 20% polyacrylamide gel under denaturing conditions (2.5 hours at 35 watts, 2800 volts). […] Thus, the effectiveness of chain termination by ddATP is clearly established.

DNA polymerase alpha = DNA polymerase alpha enzyme assay; type: biochemical, calf
Procedure: as §1
For these studies, ddNTPs were dissolved in deionized distilled water and added to the respective reaction mixtures at time zero to give the effective final concentrations. The degree of reaction or inhibition was calculated from simultaneous control reactions. The mode of inhibition and inhibition constants were determined using Linweaver-Burke and Dixon plots. […]

T1 sequence (P06526 whole entry): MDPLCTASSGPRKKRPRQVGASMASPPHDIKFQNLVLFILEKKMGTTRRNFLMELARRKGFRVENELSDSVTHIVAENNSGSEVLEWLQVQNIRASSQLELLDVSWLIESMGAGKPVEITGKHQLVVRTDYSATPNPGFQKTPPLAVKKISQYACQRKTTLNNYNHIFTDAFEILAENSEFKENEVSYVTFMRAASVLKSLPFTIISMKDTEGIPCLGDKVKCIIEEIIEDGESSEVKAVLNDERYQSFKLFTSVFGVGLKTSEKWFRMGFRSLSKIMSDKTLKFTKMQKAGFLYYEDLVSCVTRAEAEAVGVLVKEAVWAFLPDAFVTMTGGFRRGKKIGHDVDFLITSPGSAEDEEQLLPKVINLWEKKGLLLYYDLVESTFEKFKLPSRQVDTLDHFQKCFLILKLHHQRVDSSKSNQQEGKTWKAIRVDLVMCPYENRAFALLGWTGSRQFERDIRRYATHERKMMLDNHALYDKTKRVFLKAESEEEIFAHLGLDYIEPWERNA

In the case of `Cc1cn([C@H]2CC[C@@H](COP(=O)(O)OP(=O)(O)OP(=O)(O)O)O2)c(=O)[nH]c1=O` [ddTTP, 2',3'-dideoxythymidine triphosphate], the IC50 [1] is reported as 47.2 µM.

`Nc1nc2c(ncn2[C@H]2CC[C@@H](COP(=O)(O)OP(=O)(O)OP(=O)(O)O)O2)c(=O)[nH]1` [ddGTP, dideoxyguanosine triphosphate] gave an IC50 [1] of 18 µM.

With `Cc1cn([C@H]2C[C@H](N=[N+]=[N-])[C@@H](CO[P@](=O)(O)O[P@](=O)(O)OP(=O)(O)O)O2)c(=O)[nH]c1=O` [AZTTP, 3'-azido thymidine triphosphate, reference compound] the IC50 [1] was 133 µM.

`Nc1ncnc2c1ncn2[C@H]1CC[C@@H](CO)O1` [ddA, dideoxyadenosine] showed an inhibition at 250 µM (TdT-negative cell lines; 250 uM ddA, read-out: growth inhibition, range over TdT-negative cells) of 0 to 15%, an inhibition at 500 µM (TdT-negative cell lines; 500 uM ddA, read-out: growth inhibition, 2 of the 3 TdT-negative lines) of 40 to 50% and an inhibition at 250 µM (TdT-positive cell lines; 250 uM ddA, read-out: growth inhibition, range over all four TdT-positive cell lines) of 30 to 80%. The inhibition at 500 µM (TdT-positive cell lines; 500 uM ddA, read-out: growth inhibition, range over TdT-positive lines) was 92 to 99%, the inhibition at 250 µM (L1210) was 15% and the inhibition at 500 µM (L1210) was 50%. It also gave an inhibition at 250 µM (298-26) of 80%, an inhibition at 500 µM (298-26) of 99% and an inhibition at 250 µM (MOLT-4) of 60%. It also gave an inhibition at 500 µM (MOLT-4) of 92%, an inhibition at 250 µM (NALM-6) of 30% and an inhibition at 500 µM (NALM-6) of 95%. For the same compound, the inhibition at 250 µM (HPB-ALL) was 40%, the inhibition at 500 µM (HPB-ALL) was 99% and the inhibition at 250 µM (ML3) was 0%. The inhibition at 500 µM (ML3) was 40%, the inhibition at 250 µM 8392 was 0% and the inhibition at 500 µM 8392 was 0%.

For `O=c1[nH]cnc2c1ncn2[C@H]1CC[C@@H](COP(=O)(O)OP(=O)(O)OP(=O)(O)O)O1` [ddITP, dideoxyinosine triphosphate], the IC50 [1] was 20 µM.

`OC[C@H]1O[C@@H](n2cnc3c2N=CNC[C@H]3O)[C@H](O)[C@@H]1O` [CF, coformycin] was tested, and the “effect on cell viability” value [2] was “no effect”.

For `Nc1ncnc2c1ncn2[C@H]1CC[C@@H](COP(=O)(O)OP(=O)(O)OP(=O)(O)O)O1` [ddATP, 2',3'-dideoxyadenosine triphosphate], the “chain termination: residues added by TdT to 15 MER initiator (FIG. 2)” value [3] was “only one residue is added”, the IC50 [1] was 9 µM and the “effect on TdT polymerization reaction (FIG. 1)” value ([1]; micromolar concentrations of ddATP) was “dramatically inhibits”. The “effect on DNA polymerase alpha enzyme activity (FIG. 1)” value (DNA polymerase alpha) was “does not recognize”.

With `Nc1ccn([C@H]2CC[C@@H](COP(=O)(O)OP(=O)(O)OP(=O)(O)O)O2)c(=O)n1` [ddCTP, dideoxycytosine triphosphate] the IC50 [1] was 24.8 µM.
